Results from the NIST ThermoML archive (doi:10.1016/j.tca.2019.01.031).

Assays:
[1] = xn = mol fraction of the nth substance listed; details: 298 K, 101.33 kPa, Crystal, X-ray diffraction
[2] = molar heat capacity at constant pressure; xn = mol fraction of the nth substance listed; details: 101.33 kPa, Crystal, DSC
[3] = 298 K; 101.33 kPa; Crystal; X-ray diffraction
[4] = molar heat capacity at constant pressure; details: 101.33 kPa, Crystal, DSC

O=P([O-])([O-])[O-].[La+3] [lanthanum orthophosphate] + O=P([O-])([O-])[O-].O=P([O-])([O-])[O-].[Sr+2].[Th+4]
Details | mass density [kg/m3]
[1], x1 = 1 | 5063

[2], x1 = 1
Details | molar heat capacity at constant pressure [J/K/mol]
298 K | 97.5
300 K | 98
350 K | 107.3
400 K | 114.3
450 K | 120
500 K | 124.9
550 K | 129.3
600 K | 133.2
650 K | 136.9
700 K | 140.4
750 K | 143.8
800 K | 147.1

O=P([O-])([O-])[O-].[La+3] [lanthanum orthophosphate]
Details | mass density [kg/m3]
[3] | 5063

[4]
Details | molar heat capacity at constant pressure [J/K/mol]
298 K | 97.5
300 K | 98
350 K | 107.3
400 K | 114.3
450 K | 120
500 K | 124.9
550 K | 129.3
600 K | 133.2
650 K | 136.9
700 K | 140.4
750 K | 143.8
800 K | 147.1

O=P([O-])([O-])[O-].O=P([O-])([O-])[O-].[Sr+2].[Th+4] [strontium thorium(IV) phosphate]
Details | mass density [kg/m3]
[3] | 5619

[4]
Details | molar heat capacity at constant pressure [J/K/mol]
298 K | 177.6
300 K | 178.6
350 K | 197.2
400 K | 210.2
450 K | 220
500 K | 227.8
550 K | 234.2
600 K | 239.6
650 K | 244.4
700 K | 248.8
750 K | 252.8
800 K | 256.6

O=P([O-])([O-])[O-].O=P([O-])([O-])[O-].[Sr+2].[Th+4] [strontium thorium(IV) phosphate] + O=P([O-])([O-])[O-].[La+3]
[1]
Details | mass density [kg/m3]
x2 = 0 | 5619
x2 = 0.333 | 5505
x2 = 0.571 | 5395
x2 = 0.75 | 5295
x2 = 0.889 | 5203

molar heat capacity at constant pressure [J/K/mol], [2]
Details | x2 = 0 | x2 = 0.333 | x2 = 0.571 | x2 = 0.75 | x2 = 0.889
298 K | 177.6 | 172.2 | 148.6 | 130.3 | 117
300 K | 178.6 | 172.9 | 149.2 | 130.6 | 117.4
350 K | 197.2 | 186.9 | 158.5 | 139.5 | 127.5
400 K | 210.2 | 197.9 | 166.3 | 146.8 | 135.2
450 K | 220 | 207.2 | 173.1 | 153.1 | 141.5
500 K | 227.8 | 215.5 | 179.1 | 158.8 | 147.1
550 K | 234.2 | 223.2 | 184.8 | 164 | 152.1
600 K | 239.6 | 230.4 | 190.3 | 169.1 | 156.8
650 K | 244.4 | 237.2 | 195.5 | 173.9 | 161.1
700 K | 248.8 | 243.9 | 200.6 | 178.6 | 165.3
750 K | 252.8 | 250.2 | 205.6 | 183.3 | 169.3
800 K | 256.6 | 256.6 | 210.6 | 187.8 | 173.2

[O-2].[O-2].[Zr+4] [zirconium oxide]
[4]
Details | molar heat capacity at constant pressure [J/K/mol]
313 K | 56.9
323 K | 57.7
333 K | 58.6
343 K | 59.3
353 K | 60
363 K | 60.7
373 K | 61.4
383 K | 61.9
393 K | 62.5
403 K | 63
413 K | 63.6
423 K | 64
433 K | 64.5
443 K | 64.9
453 K | 65.4
463 K | 65.8
473 K | 66.2
483 K | 66.6
493 K | 66.9
503 K | 67.3
513 K | 67.6
523 K | 68
533 K | 68.3
543 K | 68.6
553 K | 68.9
563 K | 69.2
573 K | 69.5
583 K | 69.8
593 K | 70.1
603 K | 70.4
613 K | 70.6
623 K | 70.9
633 K | 71.2
643 K | 71.4
653 K | 71.7
663 K | 71.9
673 K | 72.2
683 K | 72.4
693 K | 72.7
703 K | 72.9
713 K | 73.1
723 K | 73.4
733 K | 73.6
743 K | 73.8
753 K | 74.1
763 K | 74.3
773 K | 74.5
783 K | 74.7
793 K | 74.9
800 K | 75.1
